Laboratory results taken from publication PMC12526156, “Optimization of the Macrocyclic Tetrapeptide [D-Trp]CJ-15,208 to Prevent Stress-Induced Relapse of Cocaine-Seeking Behavior” (Molecules, 2025).
≈ marks a conversion by molar mass, not a printed value. Where two headings read alike, the source gives them in different places. Where a SMILES comes first, the peptide text is derived from it. [ ]: non-standard residue; d: D form. The star is where a group is joined. dPhe(3,5-F2) = N[C@H](Cc1cc(F)cc(F)c1)C(=O)O; dPhe(3-Me) = Cc1cccc(C[C@@H](N)C(=O)O)c1; dPhe(3-F) = N[C@H](Cc1cccc(F)c1)C(=O)O; For = O=C*

Experiments:
[1] = Metabolic stability in human liver microsomes; type: in vitro ADME; details: 1 mg protein/mL; for half-life at 1 µM / microsomal CLint at 1 µM: human liver microsomes
Experimental: (§1) Evaluation of the metabolic stability of the macrocyclic tetrapeptides by human and mouse liver microsomes was performed by Curia Global (Buffalo, NY, USA). […]

hKOR [2] = target: T1, hKOR (Homo sapiens, UniProt P41145); experiment: KOR cAMP assay using GloSensor-22F, antagonist mode (vs 10 nM U50,488); type: cell-based
Source text: A piggy-Bac (PB) transposon/transposase system was utilized to allow for the stable integration of the GloSensor-22F cAMP sensor (Promega, Madison, WI, USA) gene into genomic TTAA sites in Chinese hamster ovary cells already stably expressing the hKOR. The pFastBac hyperPB plasmid vector, which codes for the piggy-Bac transposon/transposase system, was utilized and was a kind gift from Dr. John Lueck. The multicistronic expression cassette developed for our experiments consisted of a CMV promoter driving constitutive expression of GloSensor-22F cAMP sensor, followed by an internal ribosome entry site (IRES) to drive the expression of codon-optimized HygR-P2A-mScarlet (hygromycin resistance gene and mScarlet separated by a 2A self-cleaving peptide element). To clone the expression cassette onto the pFastBac vector, the CMV promoter and GloSensor-22F were PCR amplified from pGloSensor-22F cAMP Plasmid (Promega), the IRES sequence was PCR amplified from pLVX-CMV-Galpha-oA ONE-GO (a gift from Dr. Mikel Garcia-Marcos, Addgene plasmid #189732), the HygR-P2A-mScarlet sequence was a kind gift from Dr. Lueck, and a bGH-poly(A) termination sequence was PCR amplified from pcDNA3.1(+). The pFastBac vector was linearized via overnight digestion with CspCI at 37 °C, which cuts between two inverted terminal repeat (ITR) sequences, and the corresponding backbone and all PCR fragments were gel purified and assembled via Gibson assembly using the Gibson Assembly MasterMix (New England Biolabs, Ipswich, MA, USA). The resulting pFastBac CMV GloSensor-22F IRES HygR-P2A-mScarlet bGH plasmid was transformed into NEB Stable Competent E. coli (New England Biolabs), miniprepped using the E.Z.N.A. Plasmid DNA Mini Kit (Omega Bio-Tek, Norcross, GA, USA), and sequence verified by nanopore whole-plasmid sequencing (Eurofins Genomics, Louisville, KY, USA).
3.0 × 10^6 hKOR-CHO cells were plated on a 6 cm dish and incubated for four h at 37 °C and 5% CO2 in DMEM (Corning Mediatech, Manassas, VA, USA) supplemented with 5% FBS (Corning Mediatech), 1% Penicillin/Streptomycin (Gibco, Waltham, MA, USA). The cells were then transfected with 2.0 μg pFastBac CMV GloSensor-22F IRES HygR-P2A-mScarlet bGH using PEI as a transfection reagent. The following day, transfected cells were reseeded onto a 10 cm dish at a density of 5.0 × 10^5 cells and 600 μg/mL hygromycin B (Gold Bio, St. Louis, MO, USA) was added to the culture media. Cells were cultured under selection antibiotics for seven days, and the selection process was monitored by the increase in abundance of mScarlet positive cells via epifluorescence microscopy.
Following the selection period, KOR-CHO-GLO cells were maintained at 37 °C and 5% CO2 in DMEM supplemented with 5% FBS, 1% Penicillin/Streptomycin and 300 μg/mL hygromycin B to reduce the likelihood of CMV promoter silencing. On the day of the assay, cells were detached with 0.05% trypsin (Gibco) and counted, then centrifuged (1000× g, 5 min) and resuspended in assay buffer (1xPBS, 0.1% glucose, 0.5 mM MgCl2) containing 4 mM D-luciferin substrate (Gold Bio) at approximately 2 million cells/mL. 25 μL of cells (~50,000/well) were seeded onto poly L-lysine-coated white 96-well flat bottom plates (Greiner Bio-One, Kremsmünster, Austria)) and returned to the incubator for 60 min. Following incubation, cells were allowed to equilibrate to room temperature protected from light (10–15 min). Initial luminescence readings (at least 10 cycles) were collected for each well using a FLUOstar Omega v.6.2 plate reader (BMG Labtech, Ortenberg, Germany), after which the plate was removed. Prepared 4x treatments of drug (25 μL) were added to appropriate wells followed by 50 μL of 20 μM forskolin (AmBeed, Buffalo Grove, IL, USA) before the plate was returned to the reader and luminescence measured until final plateau levels were achieved (20–30 min). Assays were performed in duplicate and repeated at least three times.

[3] = Kinetic aqueous solubility; type: physicochemical; details: 1% DMSO, pH 7.4
Source text: Table A1 Stability of [D-Trp]- and [D-Phe^4]CJ-15,208 and selected analogs in human (HLMs) and mouse liver microsomes (MLMs)^1. and kinetic aqueous solubility. | column: Solubility ^2 / (µM)

hKOR [4] = target: T1, hKOR; experiment: Competition binding, [3H]U69,593, hKOR-CHO membranes
CNS KORs = CNS KORs (Mus musculus, UniProt P33534); experiment: 55 °C WWTW assay, antagonism of centrally administered U50,488 (30 nmol, i.c.v.); details: 2.5 h pretreatment; for antagonism of CNS KORs: 30 mg/kg, p.o. (9: 10 mg/kg, p.o.)
human MOR = target: T2, human MOR (Homo sapiens, UniProt P35372); experiment: biochemical; type: binding
T2 construct: expressed in transfected cells

C57BL/6J mice [5] = experiment: 55 °C warm-water tail-withdrawal assay, antinociception; type: in vivo, mouse; details: p.o. dose response; significant only first 10 min at high doses
Experimental: For intracerebroventricular administration, peptides were dissolved in DMSO at a concentration of 20 mM (100 nmol/5 µL), then diluted to test doses in a final vehicle solution of 50%DMSO/50% saline (0.9%). For all other testing (for oral administration), peptides were made fresh each day for testing in a final vehicle solution of 10% DMSO/10% Solutol/80% saline (0.9%).
Intracerebroventricular injections were made directly into the lateral ventricle according to the modified steps detailed previously. The volume of all i.c.v. injections was 5 μL, using a 10 μL Hamilton microliter syringe. The mouse was lightly anesthetized with isoflurane, an incision was made in the scalp, and the injection was made 2 mm lateral and 2 mm caudal to bregma at a depth of 3 mm.
The dose response of analogs 3, 6, 9 and 14 were also assessed following administration of one of up to four additional oral (p.o.) doses (1–30 mg/kg).

hKOR [6] = target: T1, hKOR; experiment: KOR cAMP assay using GloSensor-22F, agonist mode (KOR-CHO-GLO cells); type: cell-based; details: read-out: KOR Efficacy (%)
[7] = Metabolic stability in mouse liver microsomes; type: in vitro ADME; details: 1 mg protein/mL; for half-life at 1 µM / microsomal CLint at 1 µM: mouse liver microsomes
Experimental: as §1

C57BL/6J mice [8] = experiment: Stress-induced reinstatement of extinguished cocaine conditioned place preference; details: for fold lower dose for significant reduction of stress-induced reinstatement than [D-Trp]CJ-15,208: vs 60 mg/kg
MOR = MOR (Mus musculus, UniProt P42866); experiment: 55 °C WWTW assay, antagonism of the MOR-preferring agonist morphine; details: 3 or 4 30 mg/kg, p.o., 9 10 mg/kg, 2.5 h before morphine 10 mg/kg, i.p.
DOR = DOR (Mus musculus, UniProt P32300); experiment: 55 °C WWTW assay, antagonism of the DOR-selective agonist SNC80; details: 3 or 4 30 mg/kg, p.o., 9 10 mg/kg, 2.5 h before SNC-80 100 nmol, i.c.v.
C57BL/6J mice [9] = system: C57BL/6J mice; design: method as in PMID 23425081; details: cited from earlier work
KOR = target: KOR; design: method as in PMID 37765026; details: cited from earlier work
[10] = [3H]U69,593, human KOR, ± S.E.M., three independent experiments, read-out: KOR Ki
[11] = [3H]DAMGO, human MOR, ± S.E.M., three independent experiments, read-out: MOR Ki
[12] = 1 µM compound, 37 °C, read-out: HLM t1/2
[13] = 1 µM compound, 37 °C, read-out: MLM t1/2
[14] = p.o. once daily for two days, 1.5 h prior to FSS

SMILES | IC50 (hKOR [2]) | solubility kinetic [3] | Selectivity (MOR Ki/KOR Ki) (hKOR [4]; MOR Ki/KOR Ki) | Ki (hKOR [4]; [10]) | antagonism of CNS KORs (CNS KORs) | Ki (human MOR; [11]) | antinociception (C57BL/6J mice [5]) | Emax at 10 µM (hKOR [6]) | half-life at 1 µM [1, 12] | microsomal CLint at 1 µM ([1]; read-out: HLM CLint) | effect on antinociceptive effects of morphine (MOR) | effect on antinociceptive effects of SNC80 (DOR) | half-life at 1 µM [7, 13] | microsomal CLint at 1 µM ([7]; read-out: MLM CLint) | doses not preventing stress-induced reinstatement of cocaine CPP (C57BL/6J mice [8]; [14]) | fold lower dose for significant reduction of stress-induced reinstatement than [D-Trp]CJ-15,208 (C57BL/6J mice [8]; p.o.) | doses not producing significant antagonism of CNS KORs (CNS KORs) | further results
Cc1cccc(C[C@H]2NC(=O)[C@H](Cc3ccccc3)NC(=O)[C@H]3CCCN3C(=O)[C@H](Cc3ccccc3)NC2=O)c1 [Analog 14, [D-Phe(m-Me)^4]CJ-15,208] (cyclo(F[dP]F[dPhe(3-Me)])) | 320 ± 67 nM | 19 µM (≈ 10.5 µg/mL) | 5 | 26 ± 3 nM | ineffective | 130 ± 11 nM | < 20% | 0.74 ± 5.7% | – | – | – | – | – | – | – | – | – | half-life ([1]; microsomes, 1 µM compound, 37 °C, read-out: HLM t1/2): 4.1 min; microsomal CLint ([1]; microsomes, read-out: HLM CLint): 170 µL/min/mg; half-life ([7]; microsomes, 1 µM compound, 37 °C, read-out: MLM t1/2): 1.5 min; microsomal CLint ([7]; microsomes, read-out: MLM CLint): 467 µL/min/mg
O=C1N[C@H](Cc2cc(F)cc(F)c2)C(=O)N[C@@H](Cc2ccccc2)C(=O)N2CCC[C@@H]2C(=O)N[C@H]1Cc1ccccc1 [Analog 9, [D-Phe(3,5-F2)^4]CJ-15,208] (cyclo(F[dP]F[dPhe(3,5-F2)])) | 320 ± 49 nM | 8.6 µM (≈ 4.94 µg/mL) | 12 | 25 ± 4.3 nM | significant antagonism | 290 ± 27 nM | < 20% | 14 ± 2.4% | 2.9 min | 237 µL/min/mg | no significant effect | no significant effect | 1.2 min | 600 µL/min/mg | – | – | – | reduction of stress-induced reinstatement of cocaine CPP (C57BL/6J mice [8]; 10 mg/kg, p.o.): not significant
O=C1N[C@H](Cc2c[nH]c3ccccc23)C(=O)N[C@@H](Cc2ccccc2)C(=O)N2CCC[C@@H]2C(=O)N[C@H]1Cc1ccccc1 [Analog 1, cyclo[Phe-D-Pro-Phe-D-Trp]] (cyclo(F[dP]F[dW])) | 66 ± 11 nM | 23 µM (≈ 13.3 µg/mL) | – | – | – | – | – | 16 ± 2.4% | 5.5 min | 127 µL/min/mg | – | – | 2.6 min | 269 µL/min/mg | – | – | – | dose required to prevent stress-induced reinstatement (C57BL/6J mice [9]): 60 mg/kg, p.o.; Ki (hKOR [4]): 6.9 ± 1.1 nM; Selectivity (MOR Ki/KOR Ki) (hKOR [4]): 8; Ki (KOR): 21.8 nM; Ki (human MOR): 58 ± 7.5 nM
O=Cn1cc(C[C@H]2NC(=O)[C@H](Cc3ccccc3)NC(=O)[C@H]3CCCN3C(=O)[C@H](Cc3ccccc3)NC2=O)c2ccccc21 [Analog 3, [D-Trp(formamide)]CJ-15,208] (cyclo(F[dP]F[dW](For))) | 49 ± 5.4 nM | 4.6 µM (≈ 2.79 µg/mL) | 41 | 2.2 ± 0.15 nM | significant antagonism | 90 ± 14 nM | < 20% | 9.2 ± 4.9% | 2.8 min | 244 µL/min/mg | no significant effect | no significant effect | 1.1 min | 607 µL/min/mg | 10 mg/kg | 2 fold | 1–10 mg/kg, p.o. | doses preventing stress-induced reinstatement of cocaine CPP (C57BL/6J mice [8]; [14]): 30 mg/kg; doses giving significant antagonism of CNS KORs (CNS KORs): 30 mg/kg, p.o.
O=C1N[C@H](Cc2cccc(F)c2)C(=O)N[C@@H](Cc2ccccc2)C(=O)N2CCC[C@@H]2C(=O)N[C@H]1Cc1ccccc1 [Analog 6, [D-Phe(m-F)^4]CJ-15,208] (cyclo(F[dP]F[dPhe(3-F)])) | 340 ± 58 nM | 26 µM (≈ 14.5 µg/mL) | 5 | 32 ± 5.8 nM | ineffective | 160 ± 15 nM | < 20% | 11 ± 5.6% | 1.8 min | 376 µL/min/mg | – | – | 2.1 min | 331 µL/min/mg | – | – | – | –
O=C1N[C@H](Cc2ccccc2)C(=O)N[C@@H](Cc2ccccc2)C(=O)N2CCC[C@@H]2C(=O)N[C@H]1Cc1ccccc1 [Analog 4, cyclo[Phe-D-Pro-Phe-D-Phe]] (cyclo(F[dP]F[dF])) | 460 ± 100 nM | 24 µM (≈ 12.9 µg/mL) | 11 | 24 ± 0.97 nM | significant antagonism | 270 ± 23 nM | < 20% | 19 ± 8.1% | 4.2 min | 165 µL/min/mg | no significant effect | no significant effect | 1.6 min | 447 µL/min/mg | 3 mg/kg | 6 fold | 3 mg/kg, p.o. | fold lower KOR affinity than [D-Trp]CJ-15,208 (1) (hKOR [4]): 3.5 fold
